Results as given in patent publication US11104671B2, “Insecticidal compounds” (SYNGENTA PARTICIPATIONS AG, priority 2017, dated 2021).

Assays:
Format in all cases: in vivo
[1] = tested on: Plutella xylostella; assay: Plutella xylostella (diamond back moth), artificial diet, L2 larvae; settings: 120 h, application rate 200 ppm, 5 days after infestation, L2 larvae, read-out: effect in at least one of the two categories (mortality or growth inhibition)
Protocol: Plutella xylostella (Diamond Back Moth)
(§1) 24-well microtiter plates with artificial diet were treated with aqueous test solutions prepared from 10,000 ppm DMSO stock solutions by pipetting. After drying, the plates were infested with L2 larvae (10 to 15 per well). The samples were assessed for mortality and growth inhibition in comparison to untreated samples 5 days after infestation.

[2] = tested on: Spodoptera littoralis; assay: Spodoptera littoralis (Egyptian cotton leaf worm), cotton leaf discs, L1 larvae; settings: foliar, 72 h, application rate 200 ppm, 3 days after infestation, L1 larvae, read-out: control (mortality, anti-feedant effect or growth inhibition)
Protocol: Spodoptera littoralis (Egyptian Cotton Leaf Worm)
Cotton leaf discs were placed onto agar in 24-well microtiter plates and sprayed with aqueous test solutions prepared from 10,000 ppm DMSO stock solutions. After drying the leaf discs were infested with five L1 larvae. The samples were assessed for mortality, anti-feeding effect, and growth inhibition in comparison to untreated samples 3 days after infestation. Control of Spodoptera littoralis by a test sample is given when at least one of the categories mortality, anti-feedant effect, and growth inhibition is higher than the untreated sample.

[3] = tested on: Tetranychus urticae; assay: Tetranychus urticae (two-spotted spider mite), feeding/contact activity; settings: foliar, 192 h, application rate 200 ppm, 8 days after infestation, bean leaf discs, read-out: mortality on mixed population (mobile stages)
Protocol: Tetranychus urticae (Two-Spotted Spider Mite): Feeding/Contact Activity
Bean leaf discs on agar in 24-well microtiter plates were sprayed with aqueous test solutions prepared from 10,000 ppm DMSO stock solutions. After drying the leaf discs were infested with a mite population of mixed ages. The samples were assessed for mortality on mixed population (mobile stages) 8 days after infestation.

[4] = tested on: Diabrotica balteata; assay: Diabrotica balteata (corn root worm), maize sprouts sprayed, L2 larvae; settings: 96 h, application rate 200 ppm, 4 days after infestation, L2 larvae, read-out: effect in at least one of the two categories (mortality or growth inhibition)
Protocol: Diabrotica Balteata (Corn Root Worm)
as §1, with “Maize sprouts placed onto an agar layer in 24-well” for “24-well”, “plates” for “plates with artificial diet”, “spraying.” for “pipetting.”, “(6” for “(10”, “10” for “15”, “4” for “5”

[5] = tested on: Thrips tabaci; assay: Thrips tabaci (onion thrips), feeding/contact activity; settings: foliar, 144 h, application rate 200 ppm, 6 days after infestation, sunflower leaf discs, mixed ages, read-out: mortality
Protocol: Thrips tabaci (Onion thrips) Feeding/Contact Activity
Sunflower leaf discs were placed on agar in 24-well microtiter plates and sprayed with aqueous test solutions prepared from 10,000 ppm DMSO stock solutions. After drying the leaf discs were infested with a thrips population of mixed ages. The samples were assessed for mortality 6 days after infestation.

[6] = tested on: Euschistus heros; assay: Euschistus heros (neotropical brown stink bug), soybean leaves sprayed, N2 nymphs; settings: 120 h, application rate 200 ppm, 5 days after infestation, N2 nymphs, read-out: effect in at least one of the two categories (mortality or growth inhibition)
Protocol: Euschistus heros (Neotropical Brown Stink Bug)
Soybean leaves on agar in 24-well microtiter plates were sprayed with aqueous test solutions prepared from 10,000 ppm DMSO stock solutions. After drying the leaves were infested with N2 nymphs. The samples were assessed for mortality and growth inhibition in comparison to untreated samples 5 days after infestation.

[7] = tested on: Myzus persicae; assay: Myzus persicae (green peach aphid), feeding/contact activity; settings: foliar, 144 h, application rate 200 ppm, 6 days after infestation, sunflower leaf discs, mixed ages, read-out: mortality
Protocol: Myzus persicae (Green Peach Aphid): Feeding/Contact Activity
Sunflower leaf discs were placed onto agar in a 24-well microtiter plate and sprayed with aqueous test solutions prepared from 10,000 ppm DMSO stock solutions. After drying, the leaf discs were infested with an aphid population of mixed ages. The samples were assessed for mortality 6 days after infestation.

Cc1cc(C2=NCC(c3cc(Cl)c(F)c(Cl)c3)(C(F)(F)F)C2)ccc1C(=O)N[C@H]1CON(S(=O)(=O)N(C)C)C1 (stereo partly drawn) [Compound A10, 4-[3-(3,5-dichloro-4-fluoro-phenyl)-3-(trifluoromethyl)-2,4-dihydropyrrol-5-yl]-N-[(4R)-2-(dimethylsulfamoyl)isoxazolidin-4-yl]-2-methyl-benzamide]
≥ 80%: percent effect (mortality or growth inhibition) at 200 ppm [1] | percent control (mortality, anti-feedant effect or growth inhibition) at 200 ppm [2] | mortality at 200 ppm [3] | percent effect (mortality or growth inhibition) at 200 ppm [4] | mortality at 200 ppm [5] | percent effect (mortality or growth inhibition) at 200 ppm [6] | mortality at 200 ppm [7]

Cc1cc(C2=COC(c3cc(Cl)cc(Cl)c3)(C(F)(F)F)C2)ccc1C(=O)N[C@H]1CON(S(=O)(=O)N(C)C)C1 (stereo partly drawn) [Compound A12, 4-[2-(3,5-dichlorophenyl)-2-(trifluoromethyl)-3H-furan-4-yl]-N-[(4R)-2-(dimethylsulfamoyl)isoxazolidin-4-yl]-2-methyl-benzamide]
≥ 80%: percent effect (mortality or growth inhibition) at 200 ppm [1] | percent control (mortality, anti-feedant effect or growth inhibition) at 200 ppm [2] | mortality at 200 ppm [3] | percent effect (mortality or growth inhibition) at 200 ppm [4] | mortality at 200 ppm [5] | percent effect (mortality or growth inhibition) at 200 ppm [6] | mortality at 200 ppm [7]

Cc1cc(C2=NS[C@@](c3cc(Cl)cc(Cl)c3)(C(F)(F)F)C2)ccc1C(=O)N[C@H]1CON(S(=O)(=O)N(C)C)C1 [Compound A13, 4-[(5S)-5-(3,5-dichlorophenyl)-5-(trifluoromethyl)-4H-isothiazol-3-yl]-N-[(4R)-2-(dimethylsulfamoyl)isoxazolidin-4-yl]-2-methyl-benzamide]
≥ 80%: percent effect (mortality or growth inhibition) at 200 ppm [1] | percent control (mortality, anti-feedant effect or growth inhibition) at 200 ppm [2] | mortality at 200 ppm [3] | percent effect (mortality or growth inhibition) at 200 ppm [4] | mortality at 200 ppm [5] | percent effect (mortality or growth inhibition) at 200 ppm [6] | mortality at 200 ppm [7]

Cc1cc(C2=NCC(c3cc(Cl)cc(Cl)c3)(C(F)(F)F)C2)ccc1C(=O)N[C@H]1CON(S(=O)(=O)N(C)C)C1 (stereo partly drawn) [Compound A14, 4-[3-(3,5-dichlorophenyl)-3-(trifluoromethyl)-2,4-dihydropyrrol-5-yl]-N-[(4R)-2-(dimethylsulfamoyl)isoxazolidin-4-yl]-2-methyl-benzamide]
≥ 80%: percent effect (mortality or growth inhibition) at 200 ppm [1] | percent control (mortality, anti-feedant effect or growth inhibition) at 200 ppm [2] | mortality at 200 ppm [3] | percent effect (mortality or growth inhibition) at 200 ppm [4] | mortality at 200 ppm [5] | percent effect (mortality or growth inhibition) at 200 ppm [6] | mortality at 200 ppm [7]

Cc1cc(N2CCC(c3cc(Cl)cc(Cl)c3)(C(F)(F)F)C2)ncc1C(=O)N[C@H]1CON(S(=O)(=O)N(C)C)C1 (stereo partly drawn) [Compound A15, 6-[3-(3,5-dichlorophenyl)-3-(trifluoromethyl)pyrrolidin-1-yl]-N-[(4R)-2-(dimethylsulfamoyl)isoxazolidin-4-yl]-4-methyl-pyridine-3-carboxamide]
≥ 80%: percent effect (mortality or growth inhibition) at 200 ppm [1] | percent control (mortality, anti-feedant effect or growth inhibition) at 200 ppm [2] | mortality at 200 ppm [3] | percent effect (mortality or growth inhibition) at 200 ppm [4] | percent effect (mortality or growth inhibition) at 200 ppm [6]

Cc1nc(C2=CC(c3cc(Cl)cc(Cl)c3)(C(F)(F)F)OC2)ccc1C(=O)N[C@H]1CON(S(=O)(=O)N(C)C)C1 (stereo partly drawn) [Compound A17, 6-[5-(3,5-dichlorophenyl)-5-(trifluoromethyl)-2H-furan-3-yl]-N-[(4R)-2-(dimethylsulfamoyl)isoxazolidin-4-yl]-2-methyl-pyridine-3-carboxamide]
≥ 80%: percent effect (mortality or growth inhibition) at 200 ppm [1] | percent control (mortality, anti-feedant effect or growth inhibition) at 200 ppm [2] | mortality at 200 ppm [3] | percent effect (mortality or growth inhibition) at 200 ppm [4] | mortality at 200 ppm [5] | percent effect (mortality or growth inhibition) at 200 ppm [6]
